Test results taken from patent US7468375B2 (Pfizer Inc., priority 2004, dated 2008).
Read-outs that look alike come from different tables or passages of the source.

Tests used:
[1] = molecular target: T1, Full-length wild type HIV-1 integrase (SF1) (Human immunodeficiency virus type 1 group M subtype B, UniProt P04585); experiment: Integrase strand-transfer scintillation proximity assay; format: biochemical; details: 50 min at 37° C., 246 nM integrase, 50 nM host DNA
T1 construct: made in house; host or cells: E. coli BL21 (DE3)
From the text: Integrase Strand-Transfer Scintillation Proximity Assay Oligonucleotides
Oligonucleotide #1-5′-(biotin)[…]-3′ (SEQ ID NO: 1) and oligonucleotide #2-5′-[…]-3′ (SEQ ID NO: 2), were synthesized by TriLink BioTechnologies, Inc. (San Diego, Calif.). The annealed product represents preprocessed viral ds-DNA derived from the LTR U5 sequence of the viral genome. A ds-DNA control to test for non-specific interactions was made using a 3′ di-deoxy derivative of oligonucleotide #1 annealed to oligonucleotide #2. The CA overhang at the 5′ end of the non-biotinylated strand of the ds-DNA was created artificially by using a complimentary DNA oligonucleotide shortened by 2 base pairs. This configuration eliminates the requisite 3′ processing step of the integrase enzyme prior to the strand-transfer mechanism. Host ds-DNA was prepared as an unlabeled and [^3H]-thymidine labeled product from annealed oligonucleotide #3-5-[…]-3′ (SEQ ID NO: 3), and oligonucleotide #4-5′-[…]-3′ (SEQ ID NO: 4), both synthesized by TriLink BioTechnologies, Inc. (San Diego, Calif.). The annealed product had overhanging 3′ ends of poly(dA). Host DNA was custom radiolabeled by PerkinElmer Life Sciences Inc. (Boston, Mass.) using an enzymatic method with a 12/1 ratio of [methyl-3H]dTTP/cold ds-DNA to yield 5′-blunt end ds-DNA with a specific activity of >900 Ci/mmol. The radiolabeled product was purified using a NENSORB cartridge and stored in stabilized aqueous solution (PerkinElmer). The final radiolabeled product had six [^3H]-thymidine nucleotides at both 5′ ends of the host ds-DNA. Reagents: Streptavidin-coated polyvinyltoluene (PVT) SPA beads were purchased from Amersham Biosciences (Piscataway, N.J.). Cesium chloride was purchased from Shelton Scientific, Inc. (Shelton, Conn.). White, polystyrene, flat-bottom, non-binding surface, 96-well plates were purchased from Corning. All other buffer components were purchased from Sigma (St. Louis, Mo.) unless otherwise indicated.
Enzyme Construction: Full-length wild type HIV-1 integrase (SF1) sequence (amino acids 1-288) was constructed in a pET24a vector (Novagen, Madison, Wis.). The construct was confirmed through DNA sequencing. Enzyme Purification: Full length wild-type HIV Integrase was expressed in E. coli BL21 (DE3) cells and induced with 1 mM isopropyl-1 thio-β-D-galactopyranoside (IPTG) when cells reached an optical density between 0.8-1.0 at 600 nm. Cells were lysed by microfluidation in 50 mM HEPES pH 7.0, 75 mM NaCl, 5 mM DTT, 1 mM 4-(2-Aminoethyl)benzenesulfonylfluoride HCl (AEBSF). Lysate was then centrifuged 20 minutes at 11 k rpm in GSA rotor in Sorvall RC-5B at 4° C. Supernant was discarded and pellet resuspended in 50 mM HEPES pH 7.0, 750 mM NaCl, 5 mM DTT, 1 mM AEBSF and homogenized in a 40 mL Dounce homogenizer for 20 minutes on ice. Homogenate was then centrifuged 20 minutes at 11 k rpm in SS34 rotor in Sorvall RC-5B at 4° C. Supernant was discarded and pellet resuspended in 50 mM HEPES pH 7.0, 750 mM NaCl, 25 mM CHAPS, 5 mM DTT, 1 mM AEBSF. Preparation was then centrifuged 20 minutes at 11 k rpm in SS34 rotor in Sorvall RC-5B at 4° C. Supernant was then diluted 1:1 with 50 mM HEPES pH 7.0, 25 mM CHAPS, 1 mM DTT, 1 mM AEBSF and loaded onto a Q-Sepharose column pre-equilibrated with 50 mM HEPES, pH 7.0, 375 mM NaCl, 25 mM CHAPS, 1 mM DTT, 1 mM AEBSF. The flow through peak was collected and NaCl diluted to 0.1 M with 50 mM HEPES pH 7.0, 25 mM CHAPS, 1 mM DTT, 0.5 mM AEBSF and loaded onto a SP-Sepharose column pre-equilibrated with 50 mM HEPES pH 7.0, 100 mM NaCl, 25 mM CHAPS, 1 mM DTT, 0.5 mM AEBSF. After washing the column with the equilibration buffer, a 100 to 400 mM NaCl gradient was run. The eluted integrase was concentrated and run on a S-300 gel diffusion column using 50 mM HEPES pH 7.0, 500 mM NaCl, 25 mM CHAPS, 1 mM DTT, 0.5 mM AEBSF. The peak from this column was concentrated to 0.76 mg/mL and stored at −70° C. and later used for strand transfer assays. […]

[2] = tested on: RF strain of HIV-1 in CEM-SS cells; experiment: HIV-1 cell protection assay (XTT dye reduction); format: cell-based; details: Human immunodeficiency virus 1, CEM-SS, 144 h, HIV-1 RF, CEM-SS cells, XTT dye reduction, six days; read-out: EC50
Method in brief: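 CEM-SS cells infected with HIV-1 RF (moi 0.025–0.819) or mock-infected, 2×10^4 cells/well with half-log compound dilutions for six days. Viability by XTT/PMS reduction (4 h), absorbance 450 nm, as % of uninfected untreated cells. Therapeutic index = CC50/EC50.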

[3] = strand transfer, read-out: IC50

| Structure (SMILES) | IC50 [1, 3] [nM] | EC50 [2] [nM] | IC50 ([1]; IC50, strand transfer) [nM] |
| --- | --- | --- | --- |
| CN1CCN(CCCNCc2cn(Cc3ccc(F)cc3F)c3cnc(C(=O)NO)cc23)CC1 [Example 52, 1-(2,4-Difluorobenzyl)-N-hydroxy-3-({[3-(4-methylpiperazin-1-yl)propyl]amino}methyl)-1H-pyrrolo[2,3-c]pyridine-5-carboxamide] | 781 | 260 | – |
| O=C(NO)c1cc2ncn(CCC3CCCCC3)c2cn1 [Example 25, 3-(2-Cyclohexylethyl)-N-hydroxy-3-H-imidazo[4,5-c]pyridine-6-carboxamide] | 1720 | 230 | – |
| CN(O)C(=O)c1cc2c(CN3CC[C@@H]4C(=O)NC[C@@H]4C3)cn(Cc3ccc(F)cc3F)c2cn1 (racemic) [Example 18, rac 1-(2,4-difluorobenzyl)-N-hydroxy-N-methyl-3-{[(3aR*,7aS*)-1-oxooctahydro-5H-pyrrolo[3,4-c]pyridin-5-yl]methyl}-1H-pyrrolo[2,3-c]pyridine-5-carboxamide] | 470 | 49 | – |
| O=C(NO)c1cc2ncn(Cc3ccc(F)cc3)c2cn1 [Example 21, 3-(4-Fluorobenzyl)-N-hydroxy-3H-imidazo[4,5-c]pyridine-6-carboxamide] | 517 | 84 | – |
| CC(C)C(CO)NCc1cn(Cc2ccc(F)cc2F)c2cnc(C(=O)NO)cc12 (stereo not drawn) [Example 78, 1-(2,4-Difluorobenzyl)-N-hydroxy-3-({[1-(hydroxymethyl)-2-methylpropyl]amino}methyl)-1H-pyrrolo[2,3-c]pyridine-5-carboxamide] | 571 | 83 | – |
| O=C(NO)c1cc2c(CNCC34CCCN3CCC4)cn(Cc3ccc(F)cc3F)c2cn1 [Example 92, 1-(2,4-Difluorobenzyl)-N-hydroxy-3-{[(tetrahydro-1H-pyrrolizin-7a(5H)-ylmethyl)amino]methyl}-1H-pyrrolo[2,3-c]pyridine-5-carboxamide] | 425 | 70 | – |
| O=C(NO)c1cc2c(CNCCc3ccccn3)cn(Cc3ccc(F)cc3F)c2cn1 [Example 56] | 278 | 11 | – |
| O=C(NO)c1cc2c(cn1)c(C(O)c1ccc(F)cc1)cn2Cc1ccc(F)cc1 (stereo not drawn) [Example 31, 1-(4-Fluorobenzyl)-3-[(4-fluorophenyl)(hydroxy)methyl]-N-hydroxy-1H pyrrolo[3,2-c]pyridine-6-carboxamide] | 186 | 14 | – |
| Cc1cccc(CNCc2cn(Cc3ccc(F)cc3F)c3cnc(C(=O)NO)cc23)c1 [Example 79, 1-(2,4-Difluorobenzyl)-N-hydroxy-3-{[(3-methylbenzyl)amino]methyl}-1H-pyrrolo[2,3-c]pyridine-5-carboxamide] | 243 | 20 | – |
| O=C(NO)c1cc2c(CNCc3ccccn3)cn(Cc3ccc(F)cc3F)c2cn1 [Example 55, 1-(2,4-Difluorobenzyl)-N-hydroxy-3-{[(pyridin-2-ylmethyl)amino]methyl}-1H-pyrrolo[2,3-c]pyridine-5-carboxamide] | 216 | 20 | – |
| CN(O)C(=O)c1cc2c(COCCN3CCCC3=O)cn(Cc3ccc(F)cc3)c2cn1 [Example 117, 1-(4-Fluorobenzyl)-N-hydroxy-N-methyl-3-{[2-(2-oxopyrrolidin-1-yl)ethoxy]methyl}-1H-pyrrolo[2,3-c]pyridine-5-carboxamide] | 200 | 401 | – |
| COCc1c(C(=O)NOC)ncc2c1ccn2Cc1ccc(F)cc1F [Example 20] | – | 82 | 1540 |
| CN(C)CC(C)(C)CNCc1cn(Cc2ccc(F)cc2F)c2cnc(C(=O)NO)cc12 [Example 61, 1-(2,4-Difluorobenzyl)-3-({[3-(dimethylamino)-2,2-dimethylpropyl]amino}methyl)-N-hydroxy-1H-pyrrolo[2,3-c]pyridine-5-carboxamide] | 916 | 35 | – |
| CN1CCN(Cc2cn(Cc3ccc(F)cc3F)c3cnc(C(=O)NO)cc23)CC1 [Example 5, 1-(2,4-Difluorobenzyl)-N-hydroxy-3-[(4-methylpiperazin-1-yl)methyl]-1H pyrrolo[2,3-c]pyridine-5-carboxamide] | 153 | 13 | – |
| Cc1nnc(CCNCc2cn(Cc3ccc(F)cc3F)c3cnc(C(=O)NO)cc23)[nH]1 [Example 100, 1-(2,4-Difluorobenzyl)-N-hydroxy-3-({[2-(5-methyl-4H-1,2,4-triazol-3-yl)ethyl]amino}methyl)-1H-pyrrolo[2,3-c]pyridine-5-carboxamide] | 270 | 10000 | – |
| O=C(NO)c1cc2c(CNCC(O)c3ccccc3)cn(Cc3ccc(F)cc3F)c2cn1 (stereo not drawn) [Example 84, 1-(2,4-Difluorobenzyl)-N-hydroxy-3-{[(2-hydroxy-2-phenylethyl)amino]methyl}-1H-pyrrolo[2,3-c]pyridine-5-carboxamide] | 316 | 51 | – |
| COc1ncccc1NCc1cn(Cc2ccc(F)cc2F)c2cnc(C(=O)NO)cc12 [Example 90, 1-(2,4-Difluorobenzyl)-N-hydroxy-3—[(2-methoxypyridin-3-yl)amino-methyl]-1H-pyrrolo[2,3-c]pyridine-5-carboxamide] | 212 | 18 | – |
| CC(CO)NCc1cn(Cc2ccc(F)cc2F)c2cnc(C(=O)NO)cc12 (stereo not drawn) [Example 53, 1-(2,4-Difluorobenzyl)-N-hydroxy-3-{[(2-hydroxy-1-methylethyl)amino]methyl}-1H-pyrrolo[2,3-c]pyridine-5-carboxamide] | 359 | 11 | – |
| CN(CCS(C)(=O)=O)Cc1cn(Cc2ccc(F)cc2F)c2cnc(C(=O)NO)cc12 [Example 95, 1-(2,4-difluorobenzyl)-N-hydroxy-3-({methyl[2-(methylsulfonyl)ethyl]amino}methyl)-1H-pyrrolo[2,3-c]pyridine-5-carboxamide] | 127 | 17 | – |
| O=C(NO)c1cc2c(CNCc3ccc(F)cc3)cn(Cc3ccc(F)cc3F)c2cn1 [Example 70, 1-(2,4-Difluorobenzyl)-3-{[(4-fluorobenzyl)amino]methyl}-N-hydroxy-1H-pyrrolo[2,3-c]pyridine-5-carboxamide] | 332 | 22 | – |
| CC(C)(C)[C@@H](CO)NCc1cn(Cc2ccc(F)cc2F)c2cnc(C(=O)NO)cc12 [Example 87, 1-(2,4-Difluorobenzyl)-N-hydroxy-3-({[(1S)-1-(hydroxymethyl)-2,2-dimethylpropyl]amino}methyl)-1H-pyrrolo[2,3-c]pyridine-5-carboxamide] | 814 | 67 | – |
